Results published in US12655101B2, “Small molecules with antibacterial activity” (NEW MEXICO TECH UNIVERSITY RESEARCH PARK CORPORATION, priority 2021, dated 2026).
Values after ≈ are worked out from the molar mass of the structure shown. Where two headings read alike, the source gives them in different places.

Legend:
A. baumannii ATCC 1515 = test: Membrane depolarization detected by DiOC2(3); format: cell-based; conditions: 1xMIC; 20 μM CCCP; 25 minutes
[1] = tested on: A. baumannii ATCC BAA-1797; test: MIC on A. baumannii ATCC BAA-1797; format: cell-based
Method: A. baumannii: A. baumannii ATCC BAA-1797 was grown from a glycerol stock by placing a small volume of cells onto a MHA plate. The MHA plate was incubated overnight at 37° C. A single colony was used to inoculate MHB to obtain a bacterial broth suspension. The MHB broth suspension was grown at 37° C. on a rotary shaking incubator (100 rpm) for 12 hours. The bacterial cell concentration was adjusted to ˜5×10^5 CFU/mL in MHB or MHB+10%, 20% or 40% FBS using OD at 595 nm. 500 μL aliquots of the adjusted bacterial cell suspension were placed into borosilicate glass tubes. The cell suspensions were treated with a compound of interest, and the treatments were serially diluted two-fold. The culture tubes were incubated for 18 hours at 37° C. Efficacy was either assessed visually or by adding 10% v/v MTT (5 mg/mL stock) after the 18 hour incubation period. The cell suspensions were subsequently incubated for 10 minutes to allow the MTT reagent to carry out the colorimetric reaction. The OD was read at 595 nm.

MRSA ATCC BAA-44 = test: MIC on MRSA ATCC BAA-44; format: cell-based, S. aureus; conditions: for MIC: Staphylococcus aureus
Method: MRSA BAA-44: MRSA ATCC BAA-44 was grown from a glycerol stock by placing a small volume of cells onto a Mueller-Hinton agar plate (MHA). The MHA plate was incubated overnight at 37° C. A single colony was used to inoculate Mueller-Hinton broth (MHB) to obtain a bacterial broth suspension. The MHB broth suspension was grown at 37° C. on a rotary shaking incubator (100 rpm) for 12 hours. The bacterial cell concentration was adjusted to ˜5×10^5 colony forming units per milliliter (CFU/mL) in MHB−/+10, 20, or 40% FBS using optical density (OD) at 595 nm. 500 μL aliquots of the adjusted bacterial cell suspension were placed into borosilicate glass tubes. The cell suspensions were treated with 100 μM compound of interest and serially diluted two-fold. The culture tubes were incubated for 18 hours at 37° C. Efficacy was either assessed visually or by adding 10% v/v MTT (5 mg/mL stock) after the 18 hour incubation period, where the cell suspensions were subsequently incubated for 10 minutes to allow the MTT reagent to carry out the colorimetric reaction.

[2] = tested on: RecA-GFP fusion protein in E. coli MG1655; test: Inhibition of norfloxacin-triggered RecA-GFP induction in E. coli MG1655; format: cell-based; conditions: for killing of E. coli: PME or norfloxacin 30 minutes, then compound, 3.5 hours; for SOS response (RecA-GFP induction): norfloxacin-triggered, sub-potent Polymixin E to facilitate entry
Method: An increase in DNA damage-induced RecA protein expression is required for identification and repair of DNA lesions. LexA-repressed transcription of a norfloxacin-triggered SOS response was measured by detecting an increase in RecA-GFP fusion protein fluorescence in an E. coli recombinant model. The compounds of the disclosure inhibited RecA-GFP induction and presumably, the concurrent SOS response. Inhibition of RecA-GFP expression correlated with an increase in cell death, most likely as a result of ALD activation. Sub-potent concentrations of Polymixin E were used to facilitate entry of the compounds into cells.
E. coli MG1655 was grown from a glycerol stock by placing a small volume of cells onto a MHA plate. The MHA plate was incubated overnight at 37° C. A single colony was subsequently used to inoculate MHB+10 μg/mL kanamycin to obtain a bacterial broth suspension. This was grown in at 37° C. on a rotary shaking incubator (100 rpm) for 12 hours. The bacterial cell concentration was adjusted to ˜5×10^5 colony forming units per milliliter (CFU/mL) in MHB using optical density at 595 nm. Treated cells with polymyxin E (PME) or norfloxacin (in μg/ml) at indicated concentrations for 30 minutes at 37° C. and then added a compound of the disclosure at indicated micromolar concentrations. Incubated for 3.5 hours at 37° C. Cell samples were read on the flow cytometer to detect (green fluorescent) RLU RecA expression and/or shutdown.
E. coli MG1655 was grown from a glycerol stock by placing a small volume of cells onto a MHA plate. The MHA plate was incubated overnight at 37° C. A single colony was subsequently used to inoculate MHB+10 μg/mL kanamycin to obtain a bacterial broth suspension. The MHB broth suspension was grown at 37° C. on a rotary shaking incubator (100 rpm) for 12 hours. The bacterial cell concentration was adjusted to ˜5×10^5 CFU/mL in MHB using OD at 595 nm.
Cells were treated with 0.03 μg/mL and 0.06 μg/mL norfloxacin for 30 minutes at 37° C. Then, 100 μM of the compounds were added. The cells were incubated for 3.5 hours at 37° C. 200 μL aliquots were removed and read by a flow cytometer to detect RecA production and/or shutdown. The cells were incubated for an additional 18 hours at 37° C. to assess overall toxicity.

S. aureus = test: Evolution of resistance in S. aureus over 32 days; format: cell-based; conditions: for MIC: Staphylococcus aureus; for development of resistance (increase in MIC): 32 days of sub-inhibitory exposure
Text: Over a period of 32 days, S. aureus cells were exposed to sub-inhibitory concentrations of the indicated compound, norfloxacin, or oxacillin and sub-cultured at the newly emerged, sub-inhibitory concentration.

[3] = 0% FBS, read-out: MIC (μM) in MDR A. baumannii ATCC 1797 0% FBS
[4] = Acinetobacter baumannii, ATCC 1797 / ATCC BAA-1797, 0% FBS, read-out: MIC (μM) in MDR A. baumannii ATCC 1797 0% FBS
[5] = Acinetobacter baumannii, ATCC 1797 / ATCC BAA-1797, read-out: MIC (μM) in MDR A. baumannii ATCC 1797 40% FBS, 40% FBS
[6] = no serum (note in the cell), read-out: MIC (μM) in MRSA BAA-44
[7] = 10% FBS, read-out: MIC (μM) in MRSA BAA-44 10% FBS
[8] = in 40% FBS (note in the cell), read-out: MIC (μM) in MRSA BAA-44
[9] = 0 h, read-out: Initial MIC Day 0

MIC [1, 4]	MIC [1, 5]	MIC (MRSA ATCC BAA-44; [6])	Structure (SMILES)	MIC (S. aureus; [9])	MIC (S. aureus; read-out: Final MIC Day 32)	also measured
			N#CC(C#N)=NNc1cccc(Cl)c1 [CCCP, reference compound]			cell membrane depolarization (A. baumannii ATCC 1515): depolarized the cell membrane
			Brc1ccc(N/N=C/c2c[nH]c3cccc(OCc4ccccc4)c23)cc1 [Compound 34, (E)-4-(benzyloxy)-3-((2-(4-bromophenyl)hydrazineylidene)methyl)-1H-indole]			MIC [1, 3]: 3 µM (≈ 1.26 µg/mL); MIC (μM) in MDR A. baumannii ATCC 1797 40% FBS [1]: 50 µM (≈ 21 µg/mL); MIC (μM) in MRSA BAA-44 (MRSA ATCC BAA-44; no serum (note in the cell)): 25 (no serum) μM
> 100 µM	> 100 µM	50 µM (≈ 17.4 µg/mL)	C(=N\NC1=NCCCN1)/c1c[nH]c2cccc(OCc3ccccc3)c12 [Compound 35, (E)-2-(2-((4-(benzyloxy)-1H-indol-3-yl)methylene)hydrazineyl)-3,4,5,6-tetrahydropyrimidin-1-ium 2,2,2-trifluoroacetate]			
> 100 µM	> 100 µM	> 100 µM	C(=N\Nc1ncccn1)/c1c[nH]c2cccc(OCc3ccccc3)c12 [Compound 36, (E)-4-(benzyloxy)-3-((2-(pyrimidin-2-yl)hydrazineylidene)methyl)-1H-indole]			
> 100 µM	> 100 µM	12.5 µM (≈ 5.12 µg/mL)	FC(F)(F)c1ccc(N/N=C/c2c[nH]c3cccc(OCc4ccccc4)c23)cc1 [Compound 37, (E)-4-(benzyloxy)-3-((2-(4-(trifluoromethyl)phenyl) hydrazineylidene)methyl)-1H-indole]			
> 100 µM	> 100 µM	> 100 µM	Nc1ccc(N/N=C/c2c[nH]c3cccc(OCc4ccccc4)c23)cc1 [Compound 38, (E)-4-(2-((4-(benzyloxy)-1H-indol-3-yl)methylene)hydrazineyl) benzenaminium chloride]			
			CC(=O)O.Nc1ccc(N/N=C/c2c[nH]c3cccc(OCc4ccccc4)c23)cc1 [Compound 39, (E)-1-(4-aminophenyl)-2-((4-(benzyloxy)-1H-indol-3-yl)methylene)hydrazin-1-ium acetate]			MIC [1, 3]: >100 µM; MIC (μM) in MDR A. baumannii ATCC 1797 40% FBS [1]: >100 µM; MIC (μM) in MRSA BAA-44 (MRSA ATCC BAA-44; no serum (note in the cell)): 50 (no serum) μM
			C(=N\Nc1ncccn1)/c1c[nH]c2cccc(OCc3ccccc3)c12.O=C(O)C(F)(F)F [Compound 40, (E)-2-((4-(benzyloxy)-1H-indol-3-yl)methylene)-1-(pyrimidin-2-yl)hydrazin-1-ium 2,2,2-trifluoroacetate]			MIC [1, 3]: >100 µM; MIC (μM) in MDR A. baumannii ATCC 1797 40% FBS [1]: >100 µM; MIC (MRSA ATCC BAA-44; [7]): > 100 µM
12.5 µM (≈ 4.43 µg/mL)	> 100 µM		NCCCC(=O)Oc1cccc2[nH]cc(/C=N/Nc3ccc(F)cc3)c12 [Compound 41, (E)-3-((2-(4-fluorophenyl)hydrazineylidene)methyl)-1H-indol-4-yl 4-aminobutanoate]			MIC (μM) in MRSA BAA-44 (MRSA ATCC BAA-44; no serum (note in the cell)): 100 no serum μM
			Cl.NCCCC(=O)Oc1cccc2[nH]cc(/C=N/Nc3ccc(F)cc3)c12 [Compound 42, (E)-4-((3-((2-(4-fluorophenyl)hydrazineylidene)methyl)-1H-indol-4-yl)oxy)-4-oxobutan-1-aminium chloride]			MIC [1, 3]: <25 µM; MIC (μM) in MDR A. baumannii ATCC 1797 40% FBS [1]: >100 µM; MIC (MRSA ATCC BAA-44; in FBS (note in the cell, percentage not given), read-out: MIC (μM) in MRSA BAA-44): 100 µM; MIC (μM) in MRSA BAA-44 (MRSA ATCC BAA-44; no serum (note in the cell)): <25 in no μM
6 µM (≈ 2.83 µg/mL)	> 100 µM	6 µM (≈ 2.83 µg/mL)	Brc1ccc2c(N/N=C/c3c[nH]c4cccc(OCc5ccccc5)c34)ccnc2c1 [Compound 43, (E)-4-(2-((4-(benzyloxy)-1H-indol-3-yl)methylene)hydrazineyl)-7-bromoquinoline]			MIC (MRSA ATCC BAA-44; 18 h, read-out: MIC in the presence of 40% FBS, MRSA ATCC BAA-44, 40% FBS): > 100 µM; MIC (MRSA ATCC BAA-44; MRSA ATCC BAA-44, absence of serum, read-out: MIC in the absence of serum): 6 µM (≈ 2.83 µg/mL); MIC (MRSA ATCC BAA-44; [8]): > 100 µM
< 100 µM			Cn1cc(/C=N/Nc2ccc(F)cc2)c2c(OCc3ccccc3)cccc21 [Compound 44, (E)-4-(benzyloxy)-3-((2-(4-fluorophenyl)hydrazineylidene)methyl)-1-methyl-1H-indole]			MIC (MRSA ATCC BAA-44; [7]): < 100 µM
25 µM (≈ 10.9 µg/mL)	50 µM (≈ 21.7 µg/mL)	25 µM (≈ 10.9 µg/mL)	Cn1cc(/C=N/Nc2ccc(Br)cc2)c2c(OCc3ccccc3)cccc21 [Compound 45, (E)-4-(benzyloxy)-3-((2-(4-bromophenyl)hydrazineylidene)methyl)-1-methyl-1H-indole]			MIC (MRSA ATCC BAA-44; [8]): > 100 µM
			Brc1ccc(/N=N/c2c[nH]c3ccccc23)cc1 [Compound 47, (E)-3-((4-bromophenyl)diazenyl)-1H-indole]	4 µM	4 µM	killing of E. coli [2]: killed E. coli; SOS response (RecA-GFP induction) [2]: inhibited the SOS response
			Clc1ccc(/N=N/c2c[nH]c3ccccc23)cc1 [Compound 48, (E)-3-((4-chlorophenyl)diazenyl)-1H-indole]	8 µM	8 µM	
			Clc1ccc(Oc2c(-c3ccc(Cl)cc3)[nH]c3ccccc23)cc1 [Compound 49, 3-(4-chlorophenoxy)-2-(4-chlorophenyl)-1H-indole]	2 µM	1 µM	killing of E. coli [2]: killed E. coli; SOS response (RecA-GFP induction) [2]: inhibited the SOS response
			Clc1ccc(Oc2c(-c3ccc(Cl)cc3)[nH]c3ccc(Cl)cc23)cc1 [Compound 50, 5-chloro-3-(4-chlorophenoxy)-2-(4-chlorophenyl)-1H-indole]	0.25 to 0.5 µM	> 32 µM	
			CCn1cc(C(=O)O)c(=O)c2cc(F)c(N3CCNCC3)cc21 [Norfloxacin, reference compound]	2 µg/mL	> 100 µg/mL	development of resistance (increase in MIC) (S. aureus): Dramatic resistance
			Cc1onc(-c2ccccc2)c1C(=O)N[C@@H]1C(=O)N2[C@@H]1SC(C)(C)[C@@H]2C(=O)O [Oxacillin, reference compound]	0.25 µg/mL	> 200 µg/mL	development of resistance (increase in MIC) (S. aureus): Dramatic resistance
